According to patent publication US12227495B2, “Herbicidal compounds” (SYNGENTA CROP PROTECTION AG, priority 2018, dated 2025):

Tests used:
Format in all cases: in vivo
[1] = test system: Ipomoea hederacea (IPOHE); assay: Post-emergence herbicide test, glasshouse, percentage damage; conditions: evaluated after 13 days
Experimental: (§1) Seeds of a variety of test species are sown in standard soil in pots (Lolium perenne (LOLPE), Solanum nigrum (SOLNI), Amaranthus retoflexus (AMARE), Setaria faberi (SETFA), Echinochloa crus-galli (ECHCG), Ipomoea hederacea (IPOHE)). After cultivation for one day (pre-emergence) or after 8 days cultivation (post-emergence) under controlled conditions in a glasshouse (at 24/16° C., day/night; 14 hours light; 65% humidity), the plants are sprayed with an aqueous spray solution derived from the formulation of the technical active ingredient in acetone/water (50:50) solution containing 0.5% Tween 20 (polyoxyethelyene sorbitan monolaurate, CAS RN 9005-64-5). Compounds are applied at 500 g/ha unless otherwise stated. The test plants are then grown in a glasshouse under controlled conditions in a glasshouse (at 24/16° C., day/night; 14 hours light; 65% humidity) and watered twice daily. After 13 days for pre and post-emergence, the test is evaluated for the percentage damage caused to the plant. The biological activities are shown in the following table on a five point scale (5=81-100%; 4=61-80%; 3=41-60%; 2=21-40%; 1=0-20%).

[2] = test system: Echinochloa crus-galli (ECHCG); assay: as above; conditions: evaluated after 13 days
Experimental: as §1

Lolium perenne (LOLPE) [3] = assay: as above; conditions: evaluated after 13 days
Experimental: as §1

Solanum nigrum (SOLNI) [4] = assay: as above; conditions: evaluated after 13 days
Experimental: as §1

Setaria faberi (SETFA) [5] = assay: as above; conditions: evaluated after 13 days
Experimental: as §1

[6] = test system: Amaranthus retoflexus (AMARE); assay: as above; conditions: evaluated after 13 days
Experimental: as §1

[7] = test system: Echinochloa crus-galli (ECHCG); assay: Pre-emergence herbicide test, glasshouse, percentage damage; conditions: evaluated after 13 days
Experimental: as §1

Lolium perenne (LOLPE) [8] = assay: as above; conditions: rate 1000 g/ha, evaluated after 13 days
Experimental: as §1

Solanum nigrum (SOLNI) [9] = assay: as above; conditions: rate 1000 g/ha, evaluated after 13 days
Experimental: as §1

Setaria faberi (SETFA) [10] = assay: as above; conditions: evaluated after 13 days
Experimental: as §1

[11] = test system: Amaranthus retoflexus (AMARE); assay: as above; conditions: evaluated after 13 days
Experimental: as §1

[12] = test system: Ipomoea hederacea (IPOHE); assay: as above; conditions: rate 250 g/ha, evaluated after 13 days
Experimental: as §1

Row | Structure (SMILES) | percentage damage caused to the plant, IPOHE ([1]; 250 g/ha) | percentage damage caused to the plant, ECHCG ([2]; 250 g/ha) | percentage damage caused to the plant, SETFA (Setaria faberi (SETFA) [5]; 250 g/ha) | percentage damage caused to the plant, AMARE ([6]; 250 g/ha) | Pre-emergence Test IPOHE percentage damage (five point scale) [12] | Pre-emergence Test ECHCG percentage damage (five point scale) ([7]; rate 250 g/ha) | Pre-emergence Test SETFA percentage damage (five point scale) (Setaria faberi (SETFA) [10]; rate 250 g/ha) | Pre-emergence Test AMARE percentage damage (five point scale) ([11]; rate 250 g/ha) | further results
1 | Fc1cc(Cl)cnc1Oc1cccc(I)c1-n1cc(C(F)(F)F)cn1 [Compound A57, 5-chloro-3-fluoro-2-[3-iodo-2-[4-(trifluoromethyl)pyrazol-1-yl]phenoxy]pyridine] | – | – | – | – | – | – | – | – | percentage damage caused to the plant, IPOHE ([1]; 1000 g/ha): 2 (2=21-40%); percentage damage caused to the plant, ECHCG ([2]; 1000 g/ha): 1 (1=0-20%); percentage damage caused to the plant, LOLPE (Lolium perenne (LOLPE) [3]; 1000 g/ha): 1 (1=0-20%); percentage damage caused to the plant, SOLNI (Solanum nigrum (SOLNI) [4]; 1000 g/ha): 5 (5=81-100%); percentage damage caused to the plant, SETFA (Setaria faberi (SETFA) [5]; 1000 g/ha): 4 (4=61-80%); percentage damage caused to the plant, AMARE ([6]; 1000 g/ha): 5 (5=81-100%); Pre-emergence Test ECHCG percentage damage (five point scale) ([7]; rate 1000 g/ha): 1 (1=0-20%); Pre-emergence Test LOLPE percentage damage (five point scale) (Lolium perenne (LOLPE) [8]): 1 (1=0-20%); Pre-emergence Test SOLNI percentage damage (five point scale) (Solanum nigrum (SOLNI) [9]): 4 (4=61-80%); Pre-emergence Test SETFA percentage damage (five point scale) (Setaria faberi (SETFA) [10]; rate 1000 g/ha): 5 (5=81-100%); Pre-emergence Test AMARE percentage damage (five point scale) ([11]; rate 1000 g/ha): 5 (5=81-100%)
2 | Fc1cc(Cl)cnc1Oc1ccccc1-c1ccc(Cl)s1 [Compound A66, 5-chloro-2-[2-(5-chloro-2-thienyl)phenoxy]-3-fluoro-pyridine] | – | – | – | – | – | – | – | – | percentage damage caused to the plant, IPOHE ([1]; 1000 g/ha): 2 (2=21-40%); percentage damage caused to the plant, ECHCG ([2]; 1000 g/ha): 3 (3=41-60%); percentage damage caused to the plant, LOLPE (Lolium perenne (LOLPE) [3]; 1000 g/ha): 1 (1=0-20%); percentage damage caused to the plant, SOLNI (Solanum nigrum (SOLNI) [4]; 1000 g/ha): 5 (5=81-100%); percentage damage caused to the plant, SETFA (Setaria faberi (SETFA) [5]; 1000 g/ha): 2 (2=21-40%); percentage damage caused to the plant, AMARE ([6]; 1000 g/ha): 5 (5=81-100%)
3 | Cc1ccc(C#N)nc1Oc1cccc(F)c1-c1cc(C(F)F)no1 [Compound A76] | 3 (3=41-60%) | 1 (1=0-20%) | 1 (1=0-20%) | 2 (2=21-40%) | – | – | – | – | percentage damage caused to the plant, LOLPE (Lolium perenne (LOLPE) [3]; 250 g/ha): 1 (1=0-20%); percentage damage caused to the plant, SOLNI (Solanum nigrum (SOLNI) [4]; 250 g/ha): 4 (4=61-80%)
4 | FC(F)c1cc(-c2c(Br)cccc2Oc2ccc(Cl)cn2)on1 [Compound A100] | 2 (2=21-40%) | 5 (5=81-100%) | 5 (5=81-100%) | 5 (5=81-100%) | 1 (1=0-20%) | 2 (2=21-40%) | 5 (5=81-100%) | 5 (5=81-100%) | –
5 | Cc1noc(-c2ccccc2Oc2ncc(Cl)cc2F)n1 [Compound A126] | – | – | – | – | 1 (1=0-20%) | 4 (4=61-80%) | 3 (3=41-60%) | 5 (5=81-100%) | –
6 | Fc1cc(Cl)cnc1Oc1ccccc1-c1cc(C(F)F)on1 [Compound A163] | 3 (3=41-60%) | 5 (5=81-100%) | 5 (5=81-100%) | 5 (5=81-100%) | 1 (1=0-20%) | 4 (4=61-80%) | 5 (5=81-100%) | 5 (5=81-100%) | –
7 | Fc1cc(Cl)cnc1Oc1ccccc1-n1cc(C(F)F)nn1 [Compound A169] | 5 (5=81-100%) | 5 (5=81-100%) | 5 (5=81-100%) | 5 (5=81-100%) | 5 (5=81-100%) | 5 (5=81-100%) | 5 (5=81-100%) | 5 (5=81-100%) | –
